From patent US12365656B2, “Oxazolidinone compounds and methods of use thereof as antibacterial agents” (priority 2019, dated 2025)
In brackets after ≈: the same amount, converted by molar mass. Read-outs that look alike come from different tables or passages of the source.

How the values were obtained:
Assay type in all cases: cell-based
[1] = system: Mycobacterium tuberculosis (Mtb-GFP; H37Rv pMSP12::GFP); assay: microbe, parasite or virus in culture; details: for MIC: Mycobacterium tuberculosis, H37RV, 168 h, pH 6.8, read-out: Mtb Cho MITC95
[2] = system: Mycobacterium tuberculosis (Mtb-GFP; H37Rv pMSP12::GFP); assay: microbe, parasite or virus in culture; details: for MIC: Mycobacterium tuberculosis, H37RV, 168 h, pH 6.8, read-out: Mtb Glu MITC95
[3] = system: mitochondrial protein synthesis in HepG2 cells; assay: Mitochondrial protein synthesis assay; details: 4 days, COX-1 relative to SDH-A / Janus Green, In Cell ELISA, read-out: MPS IC50

Molecule	Mtb Cho MITC95 ([1]; cholesterol carbon source, pH 6.8, 7-day growth, GFP fluorescence, lowest concentration inhibiting 95% of growth) [µM]	Mtb Glu MITC95 ([2]; glucose carbon source, pH 6.8, 7-day growth, GFP fluorescence, lowest concentration inhibiting 95% of growth) [µM]	IC50 [3] [µM]	MIC [1] [µM]	MIC [2] [µM]	IC50 ([3]; Homo sapiens, 96 h) [µM]
4-{2,6-difluoro-4-[(5R)-5-(hydroxymethyl)-2-oxo-1,3-oxazolidin-3-yl]phenyl}-4-hydroxy-1λ^6-thiane-1,1-dione [Example 34]	25	25	> 100			
CS(=O)(=O)c1ccc(-c2ccc(N3C[C@H](CO)OC3=O)cc2F)cc1 [Example 1, (5R)-3-[2-fluoro-4′-(methylsulfonyl)biphenyl-4-yl]-5-(hydroxymethyl)-1,3-oxazolidin-2-one]				1.2 (≈ 0.438 µg/mL)	1 (≈ 0.365 µg/mL)	7
O=C1O[C@@H](CO)CN1c1cc(F)c(C2(F)CCS(=O)(=O)CC2)c(F)c1 [Example 2, (5R)-3-[3,5-difluoro-4-(4-fluoro-1,1-dioxidotetrahydro-2H-thiopyran-4-yl)phenyl]-5-(hydroxymethyl)-1,3-oxazolidin-2-one]				2.2 (≈ 0.835 µg/mL)	1.9 (≈ 0.721 µg/mL)	> 100
CSc1ccc(-c2ccc(N3C[C@H](CO)OC3=O)cc2F)cc1 [Example 4, (5R)-3-[2-fluoro-4′-(methylsulfanyl)[1,1′-biphenyl]-4-yl]-5-(hydroxymethyl)-1,3-oxazolidin-2-one]				0.24 (≈ 0.08 µg/mL)	0.21 (≈ 0.07 µg/mL)	> 100
O=C1O[C@@H](CO)CN1c1ccc(-c2ccn3ncnc3c2)c(F)c1 [Example 8, (5R)-3-[3-fluoro-4-([1,2,4]triazolo[1,5-a]pyridin-7-yl)phenyl]-5-(hydroxymethyl)-1,3-oxazolidin-2-one]				1.8 (≈ 0.591 µg/mL)	1.5 (≈ 0.492 µg/mL)	3.7
O=C1O[C@@H](CO)CN1c1ccc(-c2ccc(OCCO)cc2)c(F)c1 [Example 12, (5R)-3-[2-fluoro-4'-(2-hydroxyethoxy)[1,1′-biphenyl]-4-yl]-5-(hydroxymethyl)-1,3-oxazolidin-2-one]				0.39 (≈ 0.135 µg/mL)	0.78 (≈ 0.271 µg/mL)	19
CN1CC(C)(S(=O)(=O)c2ccc(-c3ccc(N4C[C@H](CO)OC4=O)cc3F)cc2)C1 [Example 14, (5R)-3-[4'-(1,3-dimethylazetidine-3-sulfonyl)-2-fluoro[1,1′-biphenyl]-4-yl]-5-(hydroxymethyl)-1,3-oxazolidin-2-one]				0.78 (≈ 0.339 µg/mL)	0.78 (≈ 0.339 µg/mL)	23
O=C1O[C@@H](CO)CN1c1cc(F)c(C2=CCS(=O)(=O)CC2)c(F)c1 [Example 15, 4-{2,6-difluoro-4-[(5R)-5-(hydroxymethyl)-2-oxo-1,3-oxazolidin-3-yl]phenyl}-3,6-dihydro-1λ6-thiopyran-1,1(2H)-dione]				1.6 (≈ 0.575 µg/mL)	1.6 (≈ 0.575 µg/mL)	> 100
N#CC1(c2c(F)cc(N3C[C@H](CO)OC3=O)cc2F)CCS(=O)(=O)CC1 [Example 16, 4-{2,6-difluoro-4-[(5R)-5-(hydroxymethyl)-2-oxo-1,3-oxazolidin-3-yl]phenyl}-1,1-dioxo-1λ6-thiane-4-carbonitrile]				1.6 (≈ 0.618 µg/mL)	1.6 (≈ 0.618 µg/mL)	50
O=C1O[C@@H](CO)CN1c1cc(F)c(N2CC3CS(=O)(=O)CC3C2)c(F)c1 (stereo partly drawn) [Example 17, 5-{2,6-difluoro-4-[(5R)-5-(hydroxymethyl)-2-oxo-1,3-oxazolidin-3-yl]phenyl}hexahydro-2λ6-thieno[3,4-c]pyrrole-2,2(1H)-dione]				3.1 (≈ 1.2 µg/mL)	2.3 (≈ 0.893 µg/mL)	> 100
CC(=O)N1CCN(c2c(F)cc(N3C[C@H](CO)OC3=O)cc2F)C2CC21 (stereo partly drawn) [Example 18, (5R)-3-[4-(5-acetyl-2,5-diazabicyclo[4.1.0]heptan-2-yl)-3,5-difluorophenyl]-5-(hydroxymethyl)-1,3-oxazolidin-2-one]				3.1 (≈ 1.14 µg/mL)	3.1 (≈ 1.14 µg/mL)	> 100
Cc1nnc2cc(-c3ccc(N4C[C@H](CO)OC4=O)cc3F)ccn12 [Example 19, (5R)-3-[3-fluoro-4-(3-methyl[1,2,4]triazolo[4,3-a]pyridin-7-yl)phenyl]-5-(hydroxymethyl)-1,3-oxazolidin-2-one]				1.2 (≈ 0.411 µg/mL)	1.2 (≈ 0.411 µg/mL)	18
CN1CC(S(=O)(=O)c2ccc(-c3ccc(N4C[C@H](CO)OC4=O)cc3F)cc2)C1 [Example 20, (5R)-3-[2-fluoro-4′-(1-methylazetidine-3-sulfonyl)[1,1′-biphenyl]-4-yl]-5-(hydroxymethyl)-1,3-oxazolidin-2-one]				0.39 (≈ 0.164 µg/mL)	0.39 (≈ 0.164 µg/mL)	7.4
O=C1O[C@@H](CO)CN1c1cc(F)c(N2CCN(C(=O)C3CC3)C3CC32)c(F)c1 (stereo partly drawn) [Example 21, (5R)-3-{4-[5-(cyclopropanecarbonyl)-2,5-diazabicyclo[4.1.0]heptan-2-yl]-3,5-difluorophenyl}-5-(hydroxymethyl)-1,3-oxazolidin-2-one]				3.1 (≈ 1.22 µg/mL)	6.3 (≈ 2.48 µg/mL)	> 13
O=C1O[C@@H](CO)CN1c1cc(F)c(N2CCS(=O)(=O)CC2)c(F)c1 [Example 22, 4-{2,6-difluoro-4-[(5R)-5-(hydroxymethyl)-2-oxo-1,3-oxazolidin-3-yl]phenyl}-1λ^6-thiomorpholine-1,1-dione]				6.3 (≈ 2.28 µg/mL)	3.9 (≈ 1.41 µg/mL)	> 100
CN1CC(C)(S(=O)(=O)c2ccc(-c3ccc(N4C[C@H](CO)OC4=O)cc3)cc2)C1 [Example 23, (5R)-3-[4'-(1,3-dimethylazetidine-3-sulfonyl)[1,1'-biphenyl]-4-yl]-5-(hydroxymethyl)-1,3-oxazolidin-2-one]				3.1 (≈ 1.29 µg/mL)	1.6 (≈ 0.666 µg/mL)	> 100
O=C1O[C@@H](CO)CN1c1ccc(C2(F)CCS(=O)(=O)CC2)c(F)c1 [Example 24, 4-fluoro-4-[2-fluoro-4-[(5R)-5-(hydroxymethyl)-2-oxo-1,3-oxazolidin-3-yl]phenyl}-1λ^6-thiane-1,1-dione]				6.3 (≈ 2.28 µg/mL)	6.3 (≈ 2.28 µg/mL)	> 50
O=C1O[C@@H](CO)CN1c1cc(F)c(C2(F)CCS(=O)(=O)CC2)c(F)c1F [Example 25, 4-fluoro-4-{2,3,6-trifluoro-4-[(5R)-5-(hydroxymethyl)-2-oxo-1,3-oxazolidin-3-yl]phenyl}-1λ^6-thiane-1,1-dione]				6.3 (≈ 2.5 µg/mL)	6.3 (≈ 2.5 µg/mL)	> 100
Cn1cc(-c2ccc(N3C[C@H](CO)OC3=O)cc2F)ccc1=O [Example 26, 5-{2-fluoro-4-[(5R)-5-(hydroxymethyl)-2-oxo-1,3-oxazolidin-3-yl]phenyl}-1-methylpyridin-2(1H)-one]				6.3 (≈ 2.01 µg/mL)	6.3 (≈ 2.01 µg/mL)	28
CN=S1(=O)CCN(c2c(F)cc(N3C[C@H](CO)OC3=O)cc2F)CC1 [Example 27, 4-{2,6-difluoro-4-[(5R)-5-(hydroxymethyl)-2-oxo-1,3-oxazolidin-3-yl]phenyl}-1-(methylimino)-1λ^6-thiomorpholin-1-one]				6.3 (≈ 2.37 µg/mL)	6.3 (≈ 2.37 µg/mL)	> 100
CS(=O)(=O)c1ccc(-c2ccc(N3C[C@H](CO)OC3=O)cc2)cc1 [Example 28, (5R)-5-(hydroxymethyl)-3-[4′-(methanesulfonyl)[1,1′-biphenyl]-4-yl]-1,3-oxazolidin-2-one]				1.6 (≈ 0.556 µg/mL)	1.6 (≈ 0.556 µg/mL)	32
O=C1O[C@@H](CO)CN1c1ccc(-c2ccc(S(=O)(=O)C3CCC3)cc2)c(F)c1 [Example 29, (5R)-3-[4′-(cyclobutanesulfonyl)-2-fluoro[1,1′-biphenyl]-4-yl]-5-(hydroxymethyl)-1,3-oxazolidin-2-one]				3.1 (≈ 1.26 µg/mL)	3.1 (≈ 1.26 µg/mL)	> 100
O=C1O[C@@H](CO)CN1c1cc(F)c(C2(F)CCS(=O)(=O)CC2)c(Cl)c1 [Example 30, 4-{2-chloro-6-fluoro-4-[(5R)-5-(hydroxymethyl)-2-oxo-1,3-oxazolidin-3-yl]phenyl}-4-fluoro-1λ^6-thiane-1,1-dione]				13 (≈ 5.15 µg/mL)	6.3 (≈ 2.49 µg/mL)	> 100
O=C1O[C@@H](CO)CN1c1ccc(C2(F)CCS(=O)(=O)CC2)c(Cl)c1 [Example 31, 4-{2-chloro-4-[(5R)-5-(hydroxymethyl)-2-oxo-1,3-oxazolidin-3-yl]phenyl}-4-fluoro-1λ^6-thiane-1,1-dione]				13 (≈ 4.91 µg/mL)	13 (≈ 4.91 µg/mL)	> 100
O=C1O[C@@H](CO)CN1c1ccc(-c2ccc(S(=O)(=O)C3CC3)cc2)cc1 [Example 32, (5R)-3-[4′-(cyclopropanesulfonyl)[1,1′-biphenyl]-4-yl]-5-(hydroxymethyl)-1,3-oxazolidin-2-one]				3.1 (≈ 1.16 µg/mL)	3.1 (≈ 1.16 µg/mL)	30
O=C1O[C@@H](CO)CN1c1ccc(-c2ccc(S(=O)(=O)C3COC3)cc2)cc1 [Example 33, (5R)-5-(hydroxymethyl)-3-[4′-(oxetane-3-sulfonyl)[1,1′-biphenyl]-4-yl]-1,3-oxazolidin-2-one]				2.3 (≈ 0.896 µg/mL)	3.1 (≈ 1.21 µg/mL)	9.7
Cc1cc(N2C[C@H](CO)OC2=O)ccc1C1(F)CCS(=O)(=O)CC1 [Example 35, 4-fluoro-4-{4-[(5R)-5-(hydroxymethyl)-2-oxo-1,3-oxazolidin-3-yl]-2-methylphenyl}-1λ^6-thiane-1,1-dione]				50 (≈ 17.9 µg/mL)	25 (≈ 8.94 µg/mL)	> 100
O=C1O[C@@H](CO)CN1c1ccc(C2(F)CCS(=O)(=O)CC2)cc1 [Example 36, 4-fluoro-4-{4-[(5R)-5-(hydroxymethyl)-2-oxo-1,3-oxazolidin-3-yl]phenyl}-1λ^6-thiane-1,1-dione]				38 (≈ 13 µg/mL)	50 (≈ 17.2 µg/mL)	> 50
O=C1O[C@@H](CO)CN1c1ccc(C2(F)CCS(=O)(=O)CC2)c(C(F)(F)F)c1 [Example 37, 4-fluoro-4-{4-[(5R)-5-(hydroxymethyl)-2-oxo-1,3-oxazolidin-3-yl]-2-(trifluoromethyl)phenyl}-1λ^6-thiane-1,1-dione]				50 (≈ 20.6 µg/mL)	50 (≈ 20.6 µg/mL)	> 100
